According to patent publication US8748594B2, “Process for the preparation and purification of topiramate” (Scinopharm Taiwan, Ltd., priority 2010, dated 2014):

Assay: Solubility of topiramate in the first organic solvent (xylene, toluene)
Type: physicochemical
Protocol: It was further observed that the yield during the precipitation step can be improved when using xylene instead of toluene in the present invention. This is attributed to the fact that topiramate is less soluble in xylene compared to toluene. The solubility of topiramate in xylene was detected to be 0.0025 mg per mg xylene whereas the solubility of topiramate in toluene is 0.008 mg per mg solvent. Therefore, when using xylene as the first solvent in the present invention, the loss of topiramate in the mother liquid can be reduced.

## CC1(C)O[C@@H]2[C@@H](CO[C@@]3(COS(N)(=O)=O)OC(C)(C)O[C@@H]23)O1 [topiramate, 2,3:4,5-bis-O-(1-methylethylidene)-β-D-fructopyranose sulfamate]
Solvent toluene
  solubility of topiramate in toluene: 0.008 mg per mg solvent
Solvent xylene
  solubility of topiramate in xylene: 0.0025 mg per mg xylene
